For orientation: Kd means a measure of binding affinity in units of concentration.

The structures appear in SMILES notation. Like-named read-outs stand apart in the source and are kept apart here.

The target of test [1] is T1, FKBP12 (Homo sapiens, UniProt P62942).
T1 construct: His-tag (HRV 3C cleavable) (cleaved yes); made in house; host or cells: Escherichia coli BL21(DE3)
The experiment in a line: Competition fluorescence polarization assay with FITC-rapamycin tracer. The test is classed as binding. A general note: Polarisation of emitted light reports the rotation of a fluorescent probe.
Description: Compound binding affinity was determined using a competition fluorescence polarization assay. […] The assay buffer was 20 mM HEPES pH 7.5 and 0.01% Triton X-100. […] Data were fitted to a three-parameter sigmoidal curve to derive IC50 values. Ki of the compounds were calculated using a tool provided by S. Wang’s laboratory (http://www.umich.edu/~shaomengwanglab/software/calc_ki/index.html). Data were plotted in GraphPad Prism 9.0.

The target in test [2] is T2, mTOR (Homo sapiens, UniProt P42345).
T2 construct: We performed in vitro kinase assays with purified mTOR protein; purchased SelectScreen Services (Thermo Fisher Scientific)
T2 sequence (P42345 1360-2549 limits assumed): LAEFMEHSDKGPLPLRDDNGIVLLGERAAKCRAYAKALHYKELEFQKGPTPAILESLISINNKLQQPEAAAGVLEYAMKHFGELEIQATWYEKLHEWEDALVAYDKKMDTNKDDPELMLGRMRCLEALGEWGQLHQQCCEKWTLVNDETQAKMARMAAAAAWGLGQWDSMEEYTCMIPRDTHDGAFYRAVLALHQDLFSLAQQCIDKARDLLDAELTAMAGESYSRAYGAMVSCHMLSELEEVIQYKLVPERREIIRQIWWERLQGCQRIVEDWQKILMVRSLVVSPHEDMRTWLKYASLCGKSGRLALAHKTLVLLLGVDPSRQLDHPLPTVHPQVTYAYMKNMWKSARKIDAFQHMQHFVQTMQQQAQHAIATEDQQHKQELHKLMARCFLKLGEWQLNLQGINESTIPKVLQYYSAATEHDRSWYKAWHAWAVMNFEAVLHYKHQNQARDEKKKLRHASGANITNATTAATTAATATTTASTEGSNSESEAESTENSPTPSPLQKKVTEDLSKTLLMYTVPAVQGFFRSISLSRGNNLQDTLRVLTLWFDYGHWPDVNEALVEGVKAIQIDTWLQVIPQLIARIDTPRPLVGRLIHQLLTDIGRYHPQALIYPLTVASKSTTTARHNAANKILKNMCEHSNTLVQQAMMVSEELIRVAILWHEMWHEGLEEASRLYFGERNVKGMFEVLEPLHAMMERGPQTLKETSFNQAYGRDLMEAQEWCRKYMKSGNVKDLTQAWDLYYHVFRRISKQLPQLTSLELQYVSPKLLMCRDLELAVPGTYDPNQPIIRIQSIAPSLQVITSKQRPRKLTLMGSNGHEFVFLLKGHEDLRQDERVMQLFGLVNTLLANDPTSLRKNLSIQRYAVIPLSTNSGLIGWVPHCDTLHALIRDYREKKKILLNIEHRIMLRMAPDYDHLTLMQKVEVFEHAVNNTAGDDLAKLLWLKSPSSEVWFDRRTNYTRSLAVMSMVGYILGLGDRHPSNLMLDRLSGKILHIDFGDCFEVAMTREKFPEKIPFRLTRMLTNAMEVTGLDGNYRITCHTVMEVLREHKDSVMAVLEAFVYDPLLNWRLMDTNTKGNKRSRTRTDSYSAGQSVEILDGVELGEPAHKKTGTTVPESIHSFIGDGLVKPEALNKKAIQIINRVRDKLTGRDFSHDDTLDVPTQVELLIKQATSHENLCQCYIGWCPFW
The experiment in a line: In vitro mTOR kinase inhibition assay (SelectScreen Z'-LYTE), with or without 10 µM FKBP12. The test is classed as biochemical. The note with it: for remaining activity at 4.95 pM / remaining activity at 15.2 pM / remaining activity at 45.7 pM / remaining activity at 0.000137 µM / remaining activity at 0.000412 µM / remaining activity at 0.00123 µM / remaining activity at 0.0111 µM / remaining activity at 0.0333 µM / remaining activity at […]: read-out: residual kinase activity (mTOR); for remaining activity at 0.0333 µM: 33.3 nM drug.
Description: In vitro kinase inhibition assays were performed by SelectScreen Services (Thermo Fisher Scientific) using either Z’-LYTE (mTOR, Src, Csk, EGFR, HER2 and HGK), Adapta (LRRK2) or LanthaScreen (DDR2) assay format (standardized protocols can be accessed on the SelectScreen website: https://www.thermofisher.com/us/en/home/products-and-services/services/custom-services/screening-and-profiling-services/selectscreen-profiling-service/selectscreen-kinase-profiling-service.html. When indicated, recombinant FKBP12 protein was added to the assay mixture to a final concentration of 10 µM.

Where [3] appears, read: recombinant FKBP12, Extended Data Fig. 2, read-out: Kd (FKBP12).

T1 sequence (P62942 whole entry): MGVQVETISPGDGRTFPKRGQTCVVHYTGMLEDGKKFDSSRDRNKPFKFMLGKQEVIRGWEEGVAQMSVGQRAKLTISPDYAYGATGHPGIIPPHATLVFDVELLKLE

`CO[C@H]1C[C@@H](C)C/C(C)=C/[C@@H](CCCc2ccccn2)C(=O)C[C@H](O)[C@@H](C)[C@@H](/C(C)=C/[C@@H]2CC[C@@H](O)[C@H](OC)C2)OC(=O)[C@@H]2CCCCN2C(=O)C(=O)[C@]2(O)O[C@H]1[C@@H](OC)C[C@H]2C` [05-084 (06-039)]: the Kd in test [1] (setting [3]) came to 3.3 nM.
Same read-out and setting: the same measure for `CCC(C)(C)C(=O)C(=O)N1CCCC[C@H]1C(=O)O[C@H](CCc1ccc(OC)c(OC)c1)c1cccc(NC(=O)C[N+](C)(C)C)c1` [Compound 01-025]: 95 nM.
Still for that read-out and setting: the same measure for `CCC(C)(C)C(=O)C(=O)N1CCCC[C@H]1C(=O)O[C@H](CCc1ccc(OC)c(OC)c1)c1cccc(OCCN)c1` [Compound 01-038]: 9.4 nM; for `CCC(C)(C)C(=O)C(=O)N1CCCC[C@H]1C(=O)O[C@H](CCc1ccc(OC)c(OC)c1)c1cccc(NC(=O)CN)c1` [Compound 01-040]: 21 nM.
Same read-out and setting: under `CCC(C)(C)C(=O)C(=O)N1CCCC[C@H]1C(=O)O[C@H](CCc1ccc(OC)c(OC)c1)c1cccc(OCC(=O)O)c1` [Compound 01-041] stands 38 nM; under `CCC(C)(C)C(=O)C(=O)N1CCCC[C@H]1C(=O)O[C@H](CCc1ccc(OC)c(OC)c1)c1cccc(NC(=O)CN2CCOCC2)c1` [Compound 01-043], 15 nM.
For the compound `CCC(C)(C)C(=O)C(=O)N1CCCC[C@H]1C(=O)O[C@H](CCc1ccc(OC)c(OC)c1)c1cccc(NC(=O)CN(C)C)c1` [Compound 01-044], the Kd in test [1] (setting [3]) is 13 nM.
On the same count and under the same terms, under `CCC(C)(C)C(=O)C(=O)N1CCCC[C@H]1C(=O)O[C@H](CCc1ccc(OC)c(OC)c1)c1cccc(NCC(=O)O)c1` [Compound 01-060A] stands 46 nM; under `CCC(C)(C)C(=O)C(=O)N1CCCC[C@H]1C(=O)O[C@H](CCc1ccc(OC)c(OC)c1)c1cccc(N(CC(=O)O)CC(=O)O)c1` [Compound 01-060B], 75 nM; under `CCC(C)(C)C(=O)C(=O)N1CCCC[C@H]1C(=O)O[C@H](CCc1ccc(OC)c(OC)c1)c1cccc(NC(=O)CNC(=N)N)c1` [Compound 01-065], 38 nM.
On the same count and under the same terms, the same measure for `CCC(C)(C)C(=O)C(=O)N1CCCC[C@H]1C(=O)O[C@H](CCc1ccc(OC)c(OC)c1)c1cccc(NC(=O)CNN)c1` [Compound 01-070]: 21 nM; for `CCC(C)(C)C(=O)C(=O)N1CCCC[C@H]1C(=O)O[C@H](CCc1ccc(OC)c(OC)c1)c1cccc(NC(=O)CN2CCN(C)CC2)c1` [Compound 01-072]: 13 nM; for `C=CC(=O)Nc1cccc([C@@H](CCc2ccc(OC)c(OC)c2)OC(=O)[C@@H]2CCCCN2C(=O)C(=O)C(C)(C)CC)c1` [Compound 02-014]: 64 nM.
Same read-out and setting: the same measure for `CCC(C)(C)C(=O)C(=O)N1CCCC[C@H]1C(=O)O[C@H](CCc1ccc(OC)c(OC)c1)c1cccc(NCCN)c1` [Compound 02-032]: 36 nM; for `CCC(C)(C)C(=O)C(=O)N1CCCC[C@H]1C(=O)O[C@H](CCc1ccc(OC)c(OC)c1)c1cccc(NC(=O)CS)c1` [Compound 02-055]: 64 nM; for `CCC(C)(C)C(=O)C(=O)N1CCCC[C@H]1C(=O)O[C@H](CCc1ccc(OC)c(OC)c1)c1cccc(NC(=O)CN=[N+]=[N-])c1` [Compound 02-096]: 6 nM.
Turning to `CCC(C)(C)C(=O)C(=O)N1CCCC[C@H]1C(=O)O[C@H](CCc1ccc(OC)c(OC)c1)c1cccc(NC(=O)CCOCCOCCN)c1` [Compound 03-077], the Kd in test [1] (setting [3]) came to 44 nM.
Still for that read-out and setting: under `CCC(C)(C)C(=O)C(=O)N1CCCC[C@H]1C(=O)O[C@H](CCc1ccc(OC)c(OC)c1)c1cccc(NC(=O)Cc2ccccn2)c1` [Compound 03-083] stands 31 nM; under `CCC(C)(C)C(=O)C(=O)N1CCCC[C@H]1C(=O)O[C@H](CCc1ccc(OC)c(OC)c1)c1cccc(NC(=O)CCOCCN)c1` [Compound 03-084], 19 nM.
On the same count and under the same terms, the same measure for `CCC(C)(C)C(=O)C(=O)N1CCCC[C@H]1C(=O)O[C@H](CCc1ccc(OC)c(OC)c1)c1cccc(NC(=O)Cc2cccc[n+]2[O-])c1` [Compound 03-087]: 29 nM.
Same read-out and setting: under `CO[C@H]1C[C@@H](C)C/C(C)=C/[C@@H](CCCSCCN)C(=O)C[C@H](O)[C@@H](C)[C@@H](/C(C)=C/[C@@H]2CC[C@@H](O)[C@H](OC)C2)OC(=O)[C@@H]2CCCCN2C(=O)C(=O)[C@]2(O)O[C@H]1[C@@H](OC)C[C@H]2C` [Compound 05-011] stands 0.7 nM.
As for `CO[C@H]1C[C@@H](C)C/C(C)=C/[C@@H](C/C=C/C(=O)O)C(=O)C[C@H](O)[C@@H](C)[C@@H](/C(C)=C/[C@@H]2CC[C@@H](O)[C@H](OC)C2)OC(=O)[C@@H]2CCCCN2C(=O)C(=O)[C@]2(O)O[C@H]1[C@@H](OC)C[C@H]2C` [Compound 05-012], in test [1] (setting [3]), the Kd was determined as 0.4 nM.
`CO[C@H]1C[C@@H](C)C/C(C)=C/[C@@H](CCCSCCN(C)C)C(=O)C[C@H](O)[C@@H](C)[C@@H](/C(C)=C/[C@@H]2CC[C@@H](O)[C@H](OC)C2)OC(=O)[C@@H]2CCCCN2C(=O)C(=O)[C@]2(O)O[C@H]1[C@@H](OC)C[C@H]2C` [Compound 05-013]: the Kd in test [1] (setting [3]) was 1.4 nM.
Regarding `CO[C@H]1C[C@@H](C)C/C(C)=C/[C@@H](CCCC(=O)O)C(=O)C[C@H](O)[C@@H](C)[C@@H](/C(C)=C/[C@@H]2CC[C@@H](O)[C@H](OC)C2)OC(=O)[C@@H]2CCCCN2C(=O)C(=O)[C@]2(O)O[C@H]1[C@@H](OC)C[C@H]2C` [Compound 05-020], in test [1], binding was characterised by a dissociation constant (Kd) of 1.5 nM.
With `CO[C@H]1C[C@@H](C)C/C(C)=C/[C@@H](CCCSCCNC(=O)CNc2ccccn2)C(=O)C[C@H](O)[C@@H](C)[C@@H](/C(C)=C/[C@@H]2CC[C@@H](O)[C@H](OC)C2)OC(=O)[C@@H]2CCCCN2C(=O)C(=O)[C@]2(O)O[C@H]1[C@@H](OC)C[C@H]2C` [Compound 05-028], the dissociation constant (Kd) in test [1] (setting [3]) turned out to be 2.5 nM.
Consider `CO[C@H]1C[C@@H](C)C/C(C)=C/[C@@H](CCCSC[C@H](N)C(=O)O)C(=O)C[C@H](O)[C@@H](C)[C@@H](/C(C)=C/[C@@H]2CC[C@@H](O)[C@H](OC)C2)OC(=O)[C@@H]2CCCCN2C(=O)C(=O)[C@]2(O)O[C@H]1[C@@H](OC)C[C@H]2C` [Compound 05-037], for which the equilibrium dissociation constant (Kd) in test [1] was determined as 8.7 nM.
With `CO[C@H]1C[C@@H](C)C/C(C)=C/[C@@H](C/C=C/c2ccccn2)C(=O)C[C@H](O)[C@@H](C)[C@@H](/C(C)=C/[C@@H]2CC[C@@H](O)[C@H](OC)C2)OC(=O)[C@@H]2CCCCN2C(=O)C(=O)[C@]2(O)O[C@H]1[C@@H](OC)C[C@H]2C` [Compound 05-050], in test [1] (setting [3]), the Kd was found to be 3.6 nM.
Still for that read-out and setting: the same measure for `CO[C@H]1C[C@@H](C)C/C(C)=C/[C@@H](C/C=C/c2ccncc2)C(=O)C[C@H](O)[C@@H](C)[C@@H](/C(C)=C/[C@@H]2CC[C@@H](O)[C@H](OC)C2)OC(=O)[C@@H]2CCCCN2C(=O)C(=O)[C@]2(O)O[C@H]1[C@@H](OC)C[C@H]2C` [Compound 05-051]: 1.2 nM.
As to `CC(C)n1nc(-c2ccc3oc(N)nc3c2)c2c(N)ncnc21` [MLN128], the “residual kinase activity (mTOR)” value in test [2] (0.00495 nM drug, +FKBP) was 101; in test [2] (0.00495 nM drug, no FKBP), 101; in test [2] (0.0152 nM drug, +FKBP), 105; in test [2] (0.0152 nM drug, no FKBP) it was 106; in test [2] (0.0457 nM drug, +FKBP) it was 105; in test [2] (0.0457 nM drug, no FKBP), 104. Also, the “residual kinase activity (mTOR)” value in test [2] (0.137 nM drug, +FKBP) worked out at 101; in test [2] (0.412 nM drug, +FKBP), 96; in test [2] (0.412 nM drug, no FKBP) it was 98; in test [2] (1.23 nM drug, +FKBP), 83; in test [2] (1.23 nM drug, no FKBP), 81; in test [2] (11.1 nM drug, no FKBP), 17. Further, the “residual kinase activity (mTOR)” value in test [2] ([…] drug, +FKBP) was 53; in test [2] ([…] drug, no FKBP), 50. Also, the remaining activity at 4.95 pM in test [2] (0.00495 nM drug, +FKBP) is 103%; in test [2] (0.00495 nM drug, no FKBP), 105%. The remaining activity at 15.2 pM in test [2] (0.0152 nM drug, +FKBP) worked out at 103%; in test [2] (0.0152 nM drug, no FKBP) it was 101%. Also, the remaining activity at 45.7 pM in test [2] (0.0457 nM drug, +FKBP) is 102%; in test [2] (0.0457 nM drug, no FKBP), 102%. Further, the remaining activity at 0.000137 µM was determined as 106% in test [2] (0.137 nM drug, +FKBP) and 103% in test [2] (0.137 nM drug, no FKBP). For the same compound, the remaining activity at 0.000412 µM is 97% in test [2] (0.412 nM drug, +FKBP) and 99% in test [2] (0.412 nM drug, no FKBP). Besides, the remaining activity at 0.00123 µM in test [2] (1.23 nM drug, +FKBP) was 84%; in test [2] (1.23 nM drug, no FKBP) it was 84%. In addition, the remaining activity at 0.0111 µM was 19% in test [2] (11.1 nM drug, +FKBP) and 18% in test [2] (11.1 nM drug, no FKBP). Further, the remaining activity at 0.0333 µM in test [2] (+FKBP) and in test [2] (no FKBP) was 6% throughout. In addition, the remaining activity at […] in test [2] ([…] drug, +FKBP) was 49%; in test [2] ([…] drug, no FKBP), 48%.
